Test results reported in patent US10568876B2, “Tetrahydroisoquinoline derivatives useful as inhibitors of diacylglyceride O-acyltransferase 2” (Merck Sharp & Dohme Corp., priority 2014, dated 2020).

Target: hDGAT2 (Homo sapiens (Human), UniProt Q96PD7)
Experiment: DGAT2 Enzymatic Activity Assay
Assay type: biochemical
Settings: hDGAT2 Sf-9 membrane prep; 25 μM diolein, 10 μM oleoyl-CoA; triolein product by LC/MS/MS; read-out: IC50 values for inhibition of DGAT2
Description: Sf-9 insect cells were maintained in Grace's insect cell culture medium with 10% heated-inactivated fetal bovine serum, 1% Pluronic F-68 and 0.14 μg/ml Kanamycine sulfate in Erlenmeyer flasks at 28° C. in a shaker incubator. After infection with untagged hDGAT2 baculovirus at multiplicity of infection (MOI) 0.1 for 48 hours, cells were harvested. Cell pellets were suspended in buffer containing 10 mM Tris-HCl (pH 7.5), 1 mM EDTA (pH 8.0), 250 mM sucrose and Complete Protease Inhibitor Cocktail (Roche Diagnostics Corp., Indianapolis, Ill.), and sonicated on ice. Membrane fractions were isolated by ultracentrifugation (100,000×g pellet), resuspended in the same buffer, and frozen (−80° C.) for later use. The protein concentration was determined with the BCA Protein Assay kit (Pierce Biotechnology Inc., Rockford, Ill.). Expression of protein levels was analyzed by immunoblotting with goat polyclonal DGAT2 antibody C-15 and donkey anti-goat IgG HRP (Santa Cruz Biotechnology, Inc., Santa Cruz, Calif.) followed by detection with ECL reagent (GE Healthcare, Piscataway, N.J.).
LC/MS/MS analyses were performed using Thermal Fisher's LX4-TSQ Vantage system. This system consists of an Agilent binary high-performance liquid chromatography (HPLC) pumps and a TSQ Vantage triple quadrupole MS/MS instrument. For each sample, 2 μL, samples from the top organic layer of in-plate liquid-liquid extraction were injected onto a Thermo Betabasic C4 column (2.1 mm×20 mm, 5 μm particle size). The samples were then eluted using the following conditions; mobile phase: methanol/water with 0.1% ammonium format=92/8 (v/v), flow rate: 1 mL/min, temperature: 25 C. Data was acquired in positive mode using a heated electrospray ionization (HESI) interface. The operational parameters for the TSQ Vantage MS/MS instrument were a spray voltage of 3000 V, capillary temperature of 280° C., vaporizer temperature 400° C., shealth gas 60 arbitrary unit, Aux gas 40 arbitrary units, S-lens 113 and collision gas 0.16 Pascals. […] (SRM) chromatograms of triolein (Q1: 902.9>Q3: 602.3) and internal standard (Q1: 902.9>Q3: 602.3) were collected for 40 sec. The peak area was integrated by Xcalibur Quan software. The ratio between the triolein generated in the reaction and spiked in internal standard were used to generate percentage inhibition and IC50 values. Compound percentage inhibition was calculated by the following formula: Inhibition %=1-[(compound response low control)/(high control low control)]×100%. Potent compounds were titrated and IC50 were calculated by 4 parameter sigmoidal curve fitting formula.
DGAT2 activity was determined by measuring the amount of enzymatic product triolein (1,2,3-Tri(cis-9-octadecenoyl)glycerol) using the membrane prep mentioned above. The assay was carried out in deep well 384 plates in a final volume of 40 μL at room temperature. The assay mixture contained the following: assay buffer (100 mM Tris.Cl, pH 7.0, 20 mM MgCl2, 5% ethanol), 25 μM of diolein, 10 μM of oleoyl-CoA and 10 ng/μL of DGAT2 membrane.

Chain of hDGAT2 (Q96PD7 whole entry): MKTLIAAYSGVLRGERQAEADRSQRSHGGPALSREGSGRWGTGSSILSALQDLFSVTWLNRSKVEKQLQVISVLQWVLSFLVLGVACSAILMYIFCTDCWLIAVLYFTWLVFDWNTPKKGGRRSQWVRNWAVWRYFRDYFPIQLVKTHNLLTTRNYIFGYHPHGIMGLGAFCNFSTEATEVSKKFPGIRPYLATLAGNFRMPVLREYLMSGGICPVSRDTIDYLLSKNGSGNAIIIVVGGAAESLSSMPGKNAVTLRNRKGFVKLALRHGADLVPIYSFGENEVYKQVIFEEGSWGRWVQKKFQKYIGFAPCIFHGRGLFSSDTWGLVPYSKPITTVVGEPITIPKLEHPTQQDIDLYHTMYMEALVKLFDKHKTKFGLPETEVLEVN

IC50 [nM] | Compound
52 | Cc1noc([C@@H]2C[C@H]2C(=O)NCc2ccc(-c3cccc(OC(F)(F)F)c3)c3c2CN(C(=O)NC2COC2)CC3)n1 (relative stereo) [Example 73, 8-(((trans)-2-(3-methyl-1,2,4-oxadiazol-5-yl)cyclopropanecarboxamido)methyl)-N-(oxetan-3-yl)-5-(3-(trifluoromethoxy)phenyl)-3,4-dihydroisoquinoline-2(1H)-carboxamide]
89.8 | COc1cccc(-c2ccc(CNC(=O)[C@@H]3C[C@H]3c3ccccc3)c3c2CCN(C(=O)NC2COC2)C3)c1 (relative stereo) [Example 74, 5-(3-methoxyphenyl)-N-(oxetan-3-yl)-8-(((trans)-2-phenylcyclopropanecarboxamido)methyl)-3,4-dihydroisoquinoline-2(1H)-carboxamide]
232 | CCC(C)CNC(=O)N1CCc2c(-c3cccc(OC)c3)ccc(CNC(=O)[C@@H]3C[C@H]3c3ccccc3)c2C1 (relative stereo) [Example 75, 5-(3-methoxyphenyl)-N-(2-methylbutyl)-8-(((trans)-2-phenylcyclopropanecarboxamido)methyl)-3,4-dihydroisoquinoline-2(1H)-carboxamide]
1340 | COc1cccc(-c2ccc(CNC(=O)[C@H]3C[C@@H]3C(=O)O)c3c2CCN(C(=O)NC(C)(C)C)C3)c1 (relative stereo) [Example 84, (trans)-2-(((2-(tert-butylcarbamoyl)-5-(3-methoxyphenyl)-1,2,3,4-tetrahydroisoquinolin-8-yl)methyl)carbamoyl)cyclopropanecarboxylic acid]
4300 | Cc1noc([C@@H]2C[C@H]2C(=O)NCc2ccc(-c3cccc(OC(F)(F)F)c3)c3c2CN(CC(=O)N2CCOCC2(C)C)CC3)n1 (relative stereo) [Example 91, (trans)-N-((2-(2-(3,3-dimethylmorpholino)-2-oxoethyl)-5-(3-(trifluoromethoxy)phenyl)-1,2,3,4-tetrahydroisoquinolin-8-yl)methyl)-2-(3-methyl-1,2,4-oxadiazol-5-yl)cyclopropanecarboxamide]
1140 | COc1cccc(-c2ccc(CNC(=O)[C@H]3C[C@@H]3c3ccccc3)c3c2CCN(Cc2cc(F)cc(F)c2)C3)c1 (relative stereo) [Example 92, (trans)-N-((2-(3,5-difluorobenzyl)-5-(3 methoxyphenyl)-1,2,3,4-tetrahydroisoquinolin-8-yl)methyl)-2-phenylcyclopropanecarboxamide]

The next lines start with the compound.

Compound | IC50 [nM]
CC(C)(C)NC(=O)N1CCc2c(-c3cccc(-n4cncn4)c3)ccc(CNC(=O)[C@@H]3C[C@H]3c3ccccc3)c2C1 (relative stereo) [Example 50, 5-(3-(1H-1,2,4-triazol-1-yl)phenyl)-N-(tert-butyl)-8-(((trans)-2-phenylcyclopropanecarboxamido)methyl)-3,4-dihydroisoquinoline-2(1H)-carboxamide] | 9.3
CC(C)(C)NC(=O)N1CCc2c(-c3cccc(C(C)(C)O)c3)ccc(CNC(=O)[C@@H]3C[C@H]3c3ccccc3)c2C1 (relative stereo) [Example 52, N-(tert-butyl)-5-(3-(2-hydroxypropan-2-yl)phenyl)-8-(((trans)-2-phenylcyclopropanecarboxamido)methyl)-3,4-dihydroisoquinoline-2(1H)-carboxamide] | 20.2
COc1cccc(-c2ccc(CNC(=O)[C@@H]3C[C@H]3c3nc(C)no3)c3c2CCN(C(=O)NC2(C)COC2)C3)c1 (relative stereo) [Example 53, 5-(3-methoxyphenyl)-8-(((trans)-2-(3-methyl-1,2,4-oxadiazol-5-yl)cyclopropanecarboxamido)methyl)-N-(3-methyloxetan-3-yl)-3,4-dihydroisoquinoline-2(1H)-carboxamide] | 13.4
COC(=O)c1cccc(-c2ccc(CNC(=O)[C@H]3C[C@@H]3c3ccccc3)c3c2CCN(C(=O)NC2(C)CC2)C3)c1 (relative stereo) [Example 54, methyl 3-(2-((1-methylcyclopropyl)carbamoyl)-8-(((trans)-2-phenylcyclopropanecarboxamido)methyl)-1,2,3,4-tetrahydroisoquinolin-5-yl) benzoate] | 1.13
COC(=O)c1cccc(-c2ccc(CNC(=O)[C@@H]3C[C@H]3c3ccccc3)c3c2CCN(C(=O)NC2(C)CCCC2)C3)c1 (relative stereo) [Example 55, methyl 3-(2-((1-methylcyclopentyl)carbamoyl)-8-(((trans)-2 phenylcyclopropanecarboxamido)methyl)-1,2,3,4-tetrahydroisoquinolin-5-yl) benzoate] | 10
CCOC(=O)CCCNC(=O)N1CCc2c(-c3cccc(OC)c3)ccc(CNC(=O)[C@@H]3C[C@H]3c3ccccc3)c2C1 (relative stereo) [Example 59, ethyl 4-(5-(3-methoxyphenyl)-8-(((trans)-2-phenylcyclopropanecarboxamido)methyl)-1,2,3,4-tetrahydroisoquinoline-2-carboxamido)butanoate] | 227
COc1cccc(-c2ccc(CNC(=O)[C@@H]3C[C@H]3c3ccccc3)c3c2CCN(C(=O)NC(C)(C)CC(C)(C)C)C3)c1 (relative stereo) [Example 61, 5-(3-methoxyphenyl)-8-(((trans)-2-phenylcyclopropanecarboxamido)methyl)-N-(2,4,4-trimethylpentan-2-yl)-3,4-dihydroisoquinoline-2(1H)-carboxamide] | 500
COc1cccc(-c2ccc(CNC(=O)[C@@H]3C[C@H]3c3ccccc3)c3c2CCN(C(=O)N2CCOCC2)C3)c1 (relative stereo) [Example 62, (trans)-N-((5-(3-methoxyphenyl)-2-(morpholine-4-carbonyl)-1,2,3,4-tetrahydroisoquinolin-8-yl)methyl)-2-phenylcyclopropanecarboxamide] | 818
COc1cccc(-c2ccc(CNC(=O)[C@@H]3C[C@H]3c3ccccc3)c3c2CCN(C(=O)NCCCC(=O)O)C3)c1 (relative stereo) [Example 64, 4-(5-(3-methoxyphenyl)-8-(((trans)-2-phenylcyclopropanecarboxamido)methyl)-1,2,3,4-tetrahydroisoquinoline-2-carboxamido)butanoic acid] | 4280
CCCNC(=O)N1CCc2c(-c3cccc(C(F)(F)F)c3)ccc(CNC(=O)[C@@H]3C[C@H]3c3nc(C)no3)c2C1 (relative stereo) [Example 66, 8-(((trans)-2-(3-methyl-1,2,4-oxadiazol-5-yl)cyclopropanecarboxamido)methyl)-N-propyl-5-(3-(trifluoromethyl)phenyl)-3,4-dihydroisoquinoline-2(1H)-carboxamide] | 11.5
Cc1noc([C@@H]2C[C@H]2C(=O)NCc2ccc(-c3cccc(OC(F)(F)F)c3)c3c2CN(C(=O)NC2(C)COC2)CC3)n1 (relative stereo) [Example 67, 8-(((trans)-2-(3-methyl-1,2,4-oxadiazol-5-yl)cyclopropanecarboxamido)methyl)-N-(3-methyloxetan-3-yl)-5-(3-(trifluoromethoxy)phenyl)-3,4-dihydroisoquinoline-2(1H)-carboxamide] | 13.6
COc1cccc(-c2ccc(CNC(=O)[C@@H]3C[C@H]3c3ccccc3)c3c2CCN(C(=O)NC2(C)COC2)C3)c1 (relative stereo) [Example 68, 5-(3-methoxyphenyl)-N-(3-methyloxetan-3-yl)-8-(((trans)-2-phenylcyclopropanecarboxamido)methyl)-3,4-dihydroisoquinoline-2(1H)-carboxamide] | 13.8
Cc1noc([C@@H]2C[C@H]2C(=O)NCc2ccc(-c3cccc(C(F)(F)F)c3)c3c2CN(C(=O)NC2(C)COC2)CC3)n1 (relative stereo) [Example 69, 8-(((trans)-2-(3-methyl-1,2,4-oxadiazol-5-yl)cyclopropanecarboxamido)methyl)-N-(3-methyloxetan-3-yl)-5-(3-(trifluoromethyl)phenyl)-3,4-dihydroisoquinoline-2(1H)-carboxamide] | 19.6
CCCNC(=O)N1CCc2c(-c3cccc(OC)c3)ccc(CNC(=O)[C@@H]3C[C@H]3c3ccccc3)c2C1 (relative stereo) [Example 70] | 20.4
